“And” between values parts separate entries of the source, which are not always exact repeats. Equal values may be shown once.
Test: molar heat capacity at constant pressure
Conditions: 101.33 kPa, Small (less than 1 g) adiabatic calorimetry

Cl.NC12CC3CC(CC(C3)C1)C2 [1-aminoadamantane hydrochloride]
Conditions	molar heat capacity at constant pressure
5 K, Crystal 3	0.585 J/K/mol
5.01 K, Crystal 3	0.5801 J/K/mol
5.25 K, Crystal 3	0.6835 J/K/mol
5.49 K, Crystal 3	0.7946 J/K/mol
5.75 K, Crystal 3	0.916 J/K/mol
6 K, Crystal 3	1.051 J/K/mol
6.3 K, Crystal 3	1.22 J/K/mol
6.62 K, Crystal 3	1.42 J/K/mol
6.95 K, Crystal 3	1.642 J/K/mol
7.29 K, Crystal 3	1.891 J/K/mol
7.64 K, Crystal 3	2.153 J/K/mol
7.99 K, Crystal 3	2.437 J/K/mol
8.34 K, Crystal 3	2.747 J/K/mol
8.7 K, Crystal 3	3.078 J/K/mol
9.06 K, Crystal 3	3.426 J/K/mol
9.43 K, Crystal 3	3.794 J/K/mol
9.79 K, Crystal 3	4.174 J/K/mol
10 K, Crystal 3	4.396 J/K/mol
10.17 K, Crystal 3	4.569 J/K/mol
10.64 K, Crystal 3	5.116 J/K/mol
11.22 K, Crystal 3	5.781 J/K/mol
11.81 K, Crystal 3	6.479 J/K/mol
12.4 K, Crystal 3	7.208 J/K/mol
13 K, Crystal 3	7.971 J/K/mol
13.6 K, Crystal 3	8.754 J/K/mol
14.21 K, Crystal 3	9.533 J/K/mol
14.82 K, Crystal 3	10.38 J/K/mol
15 K, Crystal 3	10.64 J/K/mol
15.54 K, Crystal 3	11.36 J/K/mol
16.37 K, Crystal 3	12.56 J/K/mol
17.21 K, Crystal 3	13.72 J/K/mol
18.05 K, Crystal 3	14.85 J/K/mol
18.89 K, Crystal 3	15.98 J/K/mol
19.74 K, Crystal 3	17.1 J/K/mol
20 K, Crystal 3	17.48 J/K/mol
20.86 K, Crystal 3	18.62 J/K/mol
22.27 K, Crystal 3	20.49 J/K/mol
23.7 K, Crystal 3	22.36 J/K/mol
25 K, Crystal 3	24 J/K/mol
25.12 K, Crystal 3	24.15 J/K/mol
26.55 K, Crystal 3	25.89 J/K/mol
27.96 K, Crystal 3	27.53 J/K/mol
29.45 K, Crystal 3	29.22 J/K/mol
30 K, Crystal 3	29.84 J/K/mol
31.06 K, Crystal 3	31 J/K/mol
32.82 K, Crystal 3	32.84 J/K/mol
34.59 K, Crystal 3	34.6 J/K/mol
35 K, Crystal 3	34.98 J/K/mol
36.37 K, Crystal 3	36.26 J/K/mol
38.14 K, Crystal 3	37.9 J/K/mol
39.92 K, Crystal 3	39.49 J/K/mol
40 K, Crystal 3	39.56 J/K/mol
41.79 K, Crystal 3	41.08 J/K/mol
43.77 K, Crystal 3	42.73 J/K/mol
45 K, Crystal 3	43.74 J/K/mol
45.75 K, Crystal 3	44.38 J/K/mol
47.72 K, Crystal 3	45.9 J/K/mol
49.71 K, Crystal 3	47.41 J/K/mol
50 K, Crystal 3	47.63 J/K/mol
51.69 K, Crystal 3	48.89 J/K/mol
53.68 K, Crystal 3	50.26 J/K/mol
55.67 K, Crystal 3	51.64 J/K/mol
57.67 K, Crystal 3	52.99 J/K/mol
59.67 K, Crystal 3	54.32 J/K/mol
60 K, Crystal 3	54.53 J/K/mol
61.67 K, Crystal 3	55.65 J/K/mol
63.67 K, Crystal 3	56.94 J/K/mol
65.68 K, Crystal 3	58.17 J/K/mol
67.69 K, Crystal 3	59.45 J/K/mol
69.7 K, Crystal 3	60.69 J/K/mol
70 K, Crystal 3	60.92 J/K/mol
71.71 K, Crystal 3	62 J/K/mol
73.72 K, Crystal 3	63.24 J/K/mol
75.74 K, Crystal 3	64.48 J/K/mol
77.75 K, Crystal 3	65.74 J/K/mol
78.45 K, Crystal 3	66.2 J/K/mol
79.78 K, Crystal 3	66.97 J/K/mol
80 K, Crystal 3	67.11 J/K/mol
80.56 K, Crystal 3	67.47 J/K/mol
81.8 K, Crystal 3	68.23 J/K/mol
82.48 K, Crystal 3	68.62 J/K/mol
83.83 K, Crystal 3	69.44 J/K/mol
84.4 K, Crystal 3	69.79 J/K/mol
86.32 K, Crystal 3	71.01 J/K/mol
88.24 K, Crystal 3	72.23 J/K/mol
90 K, Crystal 3	73.32 J/K/mol
90.17 K, Crystal 3	73.44 J/K/mol
92.09 K, Crystal 3	74.67 J/K/mol
94.02 K, Crystal 3	75.9 J/K/mol
95.95 K, Crystal 3	77.18 J/K/mol
97.89 K, Crystal 3	78.44 J/K/mol
99.83 K, Crystal 3	79.74 J/K/mol
100 K, Crystal 3	79.81 J/K/mol
100.61 K, Crystal 3	80.3 J/K/mol
101.77 K, Crystal 3	81.04 J/K/mol
102.13 K, Crystal 3	81.29 J/K/mol
103.66 K, Crystal 3	82.26 J/K/mol
103.71 K, Crystal 3	82.35 J/K/mol
105.19 K, Crystal 3	83.26 J/K/mol
105.66 K, Crystal 3	83.7 J/K/mol
106.71 K, Crystal 3	84.46 J/K/mol
107.61 K, Crystal 3	85.07 J/K/mol
108.24 K, Crystal 3	85.55 J/K/mol
109.57 K, Crystal 3	86.53 J/K/mol
109.77 K, Crystal 3	86.68 J/K/mol
110 K, Crystal 3	86.83 J/K/mol
110.61 K, Crystal 3	87.3 J/K/mol
111.3 K, Crystal 3	87.82 J/K/mol
111.52 K, Crystal 3	88.04 J/K/mol
111.99 K, Crystal 3	88.23 J/K/mol
112.83 K, Crystal 3	89.22 J/K/mol
113 K, Crystal 3	89.28 J/K/mol
113.48 K, Crystal 3	89.74 J/K/mol
114.01 K, Crystal 3	90.15 J/K/mol
114.36 K, Crystal 3	90.6 J/K/mol
115.02 K, Crystal 3	91.42 J/K/mol
115.44 K, Crystal 3	92 J/K/mol
115.56 K, Crystal 3	91.67 J/K/mol
115.89 K, Crystal 3	92.64 J/K/mol
116.03 K, Crystal 3	92.78 J/K/mol
116.09 K, Crystal 3	92.4 J/K/mol
116.58 K, Crystal 3	93.36 J/K/mol
117.03 K, Crystal 3	94.87 J/K/mol
117.07 K, Crystal 3	94.53 J/K/mol
117.39 K, Crystal 3	96.19 J/K/mol
117.4 K, Crystal 3	96.04 J/K/mol
117.56 K, Crystal 3	95.93 J/K/mol
118.03 K, Crystal 3	98.29 J/K/mol
118.05 K, Crystal 3	97.56 J/K/mol
118.53 K, Crystal 3	100.2 J/K/mol
118.9 K, Crystal 3	105.3 J/K/mol
119.01 K, Crystal 3	104 J/K/mol
119.02 K, Crystal 3	105.6 J/K/mol
119.31 K, Crystal 3	108.3 J/K/mol
119.48 K, Crystal 3	110.1 J/K/mol
119.95 K, Crystal 3	112.9 J/K/mol
119.99 K, Crystal 3	111.4 J/K/mol
120 K, Crystal 2	94.01 J/K/mol
120 K, Crystal 3	94.01 J/K/mol
120.37 K, Crystal 2	108.5 J/K/mol
120.42 K, Crystal 2	108.5 J/K/mol
120.89 K, Crystal 2	104.8 J/K/mol
120.95 K, Crystal 2	106.2 J/K/mol
121.24 K, Crystal 2	112.4 J/K/mol
121.37 K, Crystal 2	108.6 J/K/mol
121.81 K, Crystal 2	125.5 J/K/mol
121.84 K, Crystal 2	120 J/K/mol
121.91 K, Crystal 2	126.5 J/K/mol
122.28 K, Crystal 2	146.1 J/K/mol
122.69 K, Crystal 2	168 J/K/mol
122.76 K, Crystal 2	187.7 J/K/mol
123.07 K, Crystal 1	165.2 J/K/mol and 227.7 J/K/mol
123.1 K, Crystal 1	96.21 J/K/mol
123.1 K, Crystal 2	96.21 J/K/mol
123.13 K, Crystal 1	176.4 J/K/mol
123.47 K, Crystal 1	148 J/K/mol
123.61 K, Crystal 1	138.3 J/K/mol
123.92 K, Crystal 1	106.3 J/K/mol
124.41 K, Crystal 1	99.7 J/K/mol
124.5 K, Crystal 1	100.8 J/K/mol
124.56 K, Crystal 1	99.57 J/K/mol
124.9 K, Crystal 1	99.18 J/K/mol
125.12 K, Crystal 1	99.65 J/K/mol
125.39 K, Crystal 1	98.8 J/K/mol
125.57 K, Crystal 1	98.89 J/K/mol
125.88 K, Crystal 1	98.68 J/K/mol
126.03 K, Crystal 1	99.11 J/K/mol
126.58 K, Crystal 1	99.15 J/K/mol
127.3 K, Crystal 1	99.61 J/K/mol
127.57 K, Crystal 1	99.64 J/K/mol
129.1 K, Crystal 1	100.5 J/K/mol
129.28 K, Crystal 1	100.6 J/K/mol
130 K, Crystal 1	101 J/K/mol
130.63 K, Crystal 1	101.5 J/K/mol
131.26 K, Crystal 1	101.8 J/K/mol
132.16 K, Crystal 1	102.5 J/K/mol
133.24 K, Crystal 1	103.2 J/K/mol
133.7 K, Crystal 1	103.5 J/K/mol
135.22 K, Crystal 1	104.5 J/K/mol
135.23 K, Crystal 1	104.6 J/K/mol
136.76 K, Crystal 1	105.6 J/K/mol
137.2 K, Crystal 1	105.9 J/K/mol
138.29 K, Crystal 1	106.7 J/K/mol
139.19 K, Crystal 1	107.3 J/K/mol
139.83 K, Crystal 1	107.7 J/K/mol
140 K, Crystal 1	107.9 J/K/mol
141.18 K, Crystal 1	108.6 J/K/mol
141.36 K, Crystal 1	108.7 J/K/mol
142.89 K, Crystal 1	109.4 J/K/mol
143.17 K, Crystal 1	109.5 J/K/mol
144.42 K, Crystal 1	109.9 J/K/mol
145.16 K, Crystal 1	110.1 J/K/mol
145.95 K, Crystal 1	110.4 J/K/mol
147.16 K, Crystal 1	110.9 J/K/mol
147.49 K, Crystal 1	111.1 J/K/mol
149.02 K, Crystal 1	111.7 J/K/mol
149.15 K, Crystal 1	111.8 J/K/mol
150 K, Crystal 1	112.2 J/K/mol
150.57 K, Crystal 1	112.4 J/K/mol
151.15 K, Crystal 1	112.7 J/K/mol
152.11 K, Crystal 1	113.3 J/K/mol
153.15 K, Crystal 1	113.8 J/K/mol
153.64 K, Crystal 1	114.2 J/K/mol
155.14 K, Crystal 1	114.9 J/K/mol
155.18 K, Crystal 1	114.9 J/K/mol
156.72 K, Crystal 1	115.7 J/K/mol
157.14 K, Crystal 1	116.1 J/K/mol
158.25 K, Crystal 1	116.7 J/K/mol
159.14 K, Crystal 1	117.2 J/K/mol
159.79 K, Crystal 1	117.6 J/K/mol
160 K, Crystal 1	117.7 J/K/mol
161.14 K, Crystal 1	118.4 J/K/mol
161.32 K, Crystal 1	118.5 J/K/mol
162.86 K, Crystal 1	119.5 J/K/mol
163.14 K, Crystal 1	119.6 J/K/mol
164.39 K, Crystal 1	120.4 J/K/mol
165.15 K, Crystal 1	120.8 J/K/mol
165.92 K, Crystal 1	121.2 J/K/mol
167.15 K, Crystal 1	122 J/K/mol
167.45 K, Crystal 1	122.3 J/K/mol
168.98 K, Crystal 1	123.2 J/K/mol
169.15 K, Crystal 1	123.3 J/K/mol
170 K, Crystal 1	123.8 J/K/mol
170.51 K, Crystal 1	124.1 J/K/mol
171.16 K, Crystal 1	124.6 J/K/mol
172.04 K, Crystal 1	125 J/K/mol
173.17 K, Crystal 1	125.8 J/K/mol
173.57 K, Crystal 1	126 J/K/mol
175.1 K, Crystal 1	127 J/K/mol
175.17 K, Crystal 1	127 J/K/mol
176.62 K, Crystal 1	127.9 J/K/mol
177.18 K, Crystal 1	128.3 J/K/mol
178.14 K, Crystal 1	128.9 J/K/mol
179.19 K, Crystal 1	129.6 J/K/mol
179.67 K, Crystal 1	130 J/K/mol
180 K, Crystal 1	130.1 J/K/mol
181.19 K, Crystal 1	130.9 J/K/mol
181.2 K, Crystal 1	130.9 J/K/mol
182.7 K, Crystal 1	131.9 J/K/mol
183.21 K, Crystal 1	132.2 J/K/mol
184.22 K, Crystal 1	132.8 J/K/mol
185.23 K, Crystal 1	133.5 J/K/mol
185.74 K, Crystal 1	133.8 J/K/mol
187.24 K, Crystal 1	134.8 J/K/mol
187.25 K, Crystal 1	134.8 J/K/mol
188.76 K, Crystal 1	135.8 J/K/mol
189.25 K, Crystal 1	136.2 J/K/mol
190 K, Crystal 1	136.6 J/K/mol
190.27 K, Crystal 1	136.9 J/K/mol
191.27 K, Crystal 1	137.4 J/K/mol
191.79 K, Crystal 1	137.9 J/K/mol
193.28 K, Crystal 1	138.8 J/K/mol
193.3 K, Crystal 1	138.9 J/K/mol
194.8 K, Crystal 1	139.9 J/K/mol
195.3 K, Crystal 1	140.1 J/K/mol
